This is an account of results in patent US20260242391A1 (priority 2023, published 2026).

As a reminder, the EC50 is the concentration needed to bring the measured effect to its halfway point. Read a high EC50 as a need for much substance. What is called IC50 is the concentration that inhibits the measured activity by half.

SMILES strings stand for the structures.

In one series the test system is HL-60. The experiment in a line: HL-60 differentiation potency. Conditions: Homo sapiens. It is filed as cell-based.
Another series is described as follows: in vitro. To be noted: human.

`C[C@H]1[C@@H](O[C@H]2C[C@@H](C(=O)N[C@H]3CC[C@@H](C(=O)O)C3)C2)O[C@@H]2O[C@@]3(C)CC[C@H]4[C@H](C)CC[C@@H]1[C@@]24OO3` [Compound 201, (1R,3S)-3-((1R,3R)-3-(((3R,5aS,6R,8aS, 9R,10S,12R, 12aR)-3,6,9-trimethyldeca-hydro-12H-3,12-epoxy[1,2]dioxepino[4,3-i]isochromen-10-yl)oxy)cyclo-butane-1-carboxamido) cyclopentane-1-carboxylic acid] had an EC50 in the series on HL-60 of 6.73 µM. In addition, the concentration for half-maximal inhibition (IC50) in “in vitro” (HL-60 cells) was greater than 20 µM.
In the series on HL-60, `C[C@H]1[C@@H](OCC2CCN(C(=O)C(=O)O)CC2)O[C@@H]2O[C@@]3(C)CC[C@H]4[C@H](C)CC[C@@H]1[C@@]24OO3` [Compound 203, 2-oxo-2-(4-((((3R,5aS,6R,8aS, 9R,10S,12R, 12aR)-3,6,9-trimethyldeca-hydro-12H-3,12-epoxy[1,2]dioxepino[4,3-i]isochromen-10-yl)oxy)methyl)piperidin-1-yl)acetic acid] displayed an EC50 of 17.5 µM. In addition, the 50% inhibitory concentration (IC50) in “in vitro” is greater than 20 µM.
Taken in the same sequence, the figures for `C[C@H]1[C@@H](Oc2ccc(C(=O)N[C@@H](CC3CCC3)C(=O)O)cc2)O[C@@H]2O[C@@]3(C)CC[C@H]4[C@H](C)CC[C@@H]1[C@@]24OO3` [Compound 205, (S)-3-cyclobutyl-2-(4-(((3R,5aS,6R,8aS, 9R,10S,12R, 12aR)-3,6,9-trimethyldeca-hydro-12H-3,12-epoxy[1,2]dioxepino[4,3-i]isochromen-10-yl)oxy)benzamido) propanoic acid] were 0.0351 µM and 0.11 µM.
The corresponding values for `C[C@H]1[C@@H](OC(C)(C)[C@H]2C[C@@H](C(=O)O)C2)O[C@@H]2O[C@@]3(C)CC[C@H]4[C@H](C)CC[C@@H]1[C@@]24OO3` [Compound 206, (1R,3s)-3-(2-(((3R,5aS,6R,8aS, 9R,10S,12R, 12aR)-3,6,9-trimethyldeca-hydro-12H-3,12-epoxy[1,2]dioxepino[4,3-i]isochromen-10-yl)oxy)propan-2-yl)cyclobutane-1-carboxylic acid] are 3.83 µM and greater than 20 µM.
`C[C@H]1[C@@H](Oc2ccc(C(=O)N3[C@H](C(=O)O)C[C@@H]4CCC[C@@H]43)cc2)O[C@@H]2O[C@@]3(C)CC[C@H]4[C@H](C)CC[C@@H]1[C@@]24OO3` [Compound 207, (2S,3aS,6aS)-1-(4-(((3R,5aS,6R,8aS, 9R,10S,12R, 12aR)-3,6,9-trimethyldeca-hydro-12H-3,12-epoxy[1,2]dioxepino[4,3-i]isochromen-10-yl)oxy)benzoyl) octahydrocyclo penta[b]pyrrole-2-carboxylic acid]: in the series on HL-60, the EC50 was determined as 0.15 µM. The molecule also yielded an IC50 in “in vitro” of 0.68 µM.
Taken in the same sequence, the figures for `C[C@H]1[C@@H](Oc2ccc3[nH]c(C(=O)O)cc3c2)O[C@@H]2O[C@@]3(C)CC[C@H]4[C@H](C)CC[C@@H]1[C@@]24OO3` [Compound 208, 5-(((3R,5aS,6R,8aS, 9R,10S,12R, 12aR)-3,6,9-trimethyldeca-hydro-12H-3,12-epoxy[1,2]dioxepino[4,3-i]isochromen-10-yl)oxy)-1H-indole-2-carboxylic acid] were 0.0693 µM and 0.37 µM.
Regarding `C[C@H]1[C@@H](OCC2CCC(C(=O)O)O2)O[C@@H]2O[C@@]3(C)CC[C@H]4[C@H](C)CC[C@@H]1[C@@]24OO3` (stereo partly drawn) [Compound 209, 5-((((3R,5aS,6R,8aS, 9R,10S,12R, 12aR)-3,6,9-trimethyldeca-hydro-12H-3,12-epoxy[1,2]dioxepino[4,3-i]isochromen-10-yl)oxy)methyl) tetrahydrofuran-2-carboxylic acid], the EC50 with HL-60 was 15.8 µM. This molecule also registered an IC50 in the series “in vitro” greater than 20 µM.
The corresponding values for `C[C@H]1[C@@H](OC[C@@]2(F)CCC(C(=O)O)C2)O[C@@H]2O[C@@]3(C)CC[C@H]4[C@H](C)CC[C@@H]1[C@@]24OO3` (stereo partly drawn) [Compound 210, (3R)-3-fluoro-3-((((3R,5aS,6R,8aS, 9R,10S,12R, 12aR)-3,6,9-trimethyldeca-hydro-12H-3,12-epoxy[1,2]dioxepino[4,3-i]isochromen-10-yl)oxy)methyl) cyclopentane-1-carboxylic acid] are 2.5 µM and 7.58 µM.
